Usually IC50 stands for the concentration at which inhibition is half-maximal.

One data set relates to MV4-11. Nature of the data set: Antiproliferative activity against human MV4-11 cells incubated for 72 hrs by Cell Counting Kit-8 assay. The format is functional, cell-based. To be noted: MV4-11, 72 h. On the technique in general: Formazan colour is commonly taken as a measure of viable cells.
Data set [1] in a line: Chemical stability of compound incubated for 90 days by HPLC analysis. As to conditions: time 90 day; read-out: Stabilty. The format is physicochemical.
Data set [2] has as its system MOLM-13. Briefly: Antiproliferative activity against human MOLM-13 cells incubated for 72 hrs by Cell Counting Kit-8 assay. The format is functional, cell-based. To be noted: MOLM-13, 72 h.
For data set [3], the target named is T1, Receptor-type tyrosine-protein kinase FLT3 (Homo sapiens, UniProt P36888).
T1 sequence (P36888 whole entry): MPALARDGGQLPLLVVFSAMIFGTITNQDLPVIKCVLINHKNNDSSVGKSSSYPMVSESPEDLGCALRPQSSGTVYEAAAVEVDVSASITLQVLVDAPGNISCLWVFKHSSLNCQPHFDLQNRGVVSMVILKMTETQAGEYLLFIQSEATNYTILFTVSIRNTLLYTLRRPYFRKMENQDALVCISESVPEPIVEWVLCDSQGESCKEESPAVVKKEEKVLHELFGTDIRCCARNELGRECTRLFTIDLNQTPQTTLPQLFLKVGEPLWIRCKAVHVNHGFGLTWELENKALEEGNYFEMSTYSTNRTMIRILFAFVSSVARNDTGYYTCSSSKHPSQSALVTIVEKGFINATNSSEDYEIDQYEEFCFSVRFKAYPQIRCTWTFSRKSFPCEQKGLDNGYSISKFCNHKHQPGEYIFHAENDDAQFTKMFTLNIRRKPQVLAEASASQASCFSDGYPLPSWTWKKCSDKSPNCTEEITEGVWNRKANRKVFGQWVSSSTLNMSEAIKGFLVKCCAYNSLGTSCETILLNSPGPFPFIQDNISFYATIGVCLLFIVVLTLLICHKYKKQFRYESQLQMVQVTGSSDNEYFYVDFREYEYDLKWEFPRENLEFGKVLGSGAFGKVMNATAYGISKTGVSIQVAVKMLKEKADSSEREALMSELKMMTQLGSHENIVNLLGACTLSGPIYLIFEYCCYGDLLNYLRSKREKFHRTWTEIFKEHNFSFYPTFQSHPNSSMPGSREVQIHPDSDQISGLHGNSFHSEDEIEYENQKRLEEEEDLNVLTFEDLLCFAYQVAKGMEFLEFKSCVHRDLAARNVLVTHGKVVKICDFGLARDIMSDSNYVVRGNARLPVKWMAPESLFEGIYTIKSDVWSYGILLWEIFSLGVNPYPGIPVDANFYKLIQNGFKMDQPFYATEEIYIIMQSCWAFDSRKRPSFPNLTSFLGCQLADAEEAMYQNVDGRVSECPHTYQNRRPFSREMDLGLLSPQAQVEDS
Briefly: Inhibition of FLT3 (unknown origin) incubated for 30 mins in presence of ATP by mobility shift assay.

Data set [4] relates to MOLM-13. Briefly: Antiproliferative activity against human quizartinib-resistant MOLM-13 cells at 1 nM incubated for 72 hrs by CCK8 assay relative to control. It is filed as functional.
Data set [5] has as its system MOLM-13. Briefly: Antiproliferative activity against human sunitinib-resistant MOLM-13 cells at 1 nM incubated for 72 hrs by CCK8 assay relative to control. The format is functional.
Data set [6] concerns MOLM-13. Briefly: Antiproliferative activity against human sunitinib-resistant MOLM-13 cells at 12 nM incubated for 72 hrs by CCK8 assay relative to control. The format is functional.
Data set [7] has as its system MOLM-13. Nature of the data set: Antiproliferative activity against human quizartinib-resistant MOLM-13 cells at 111 nM incubated for 72 hrs by CCK8 assay relative to control. The format is functional.
Data set [8] has as its system MOLM-13. Nature of the data set: Antiproliferative activity against human sunitinib-resistant MOLM-13 cells at 1000 nM incubated for 72 hrs by CCK8 assay relative to control. The format is functional.
In data set [9] the test system is MOLM-13. Nature of the data set: Antiproliferative activity against human quizartinib-resistant MOLM-13 cells at 333 nM incubated for 72 hrs by CCK8 assay relative to control. It is filed as functional.
Data set [10] has as its system MOLM-13. Briefly: Antiproliferative activity against human quizartinib-resistant MOLM-13 cells at 37 nM incubated for 72 hrs by CCK8 assay relative to control. The format is functional.
The subject of data set [11] is MOLM-13. Briefly: Antiproliferative activity against human sunitinib-resistant MOLM-13 cells at 4 nM incubated for 72 hrs by CCK8 assay relative to control. The format is functional.
Data set [12] has as its system MOLM-13. Briefly: Antiproliferative activity against human quizartinib-resistant MOLM-13 cells at 12 nM incubated for 72 hrs by CCK8 assay relative to control. The format is functional.
Data set [13] deals with MOLM-13. Briefly: Antiproliferative activity against human sunitinib-resistant MOLM-13 cells at 111 nM incubated for 72 hrs by CCK8 assay relative to control. The format is functional.
Data set [14] concerns MOLM-13. Briefly: Antiproliferative activity against human sunitinib-resistant MOLM-13 cells at 37 nM incubated for 72 hrs by CCK8 assay relative to control. The format is functional.
Data set [15] concerns MOLM-13. Nature of the data set: Antiproliferative activity against human quizartinib-resistant MOLM-13 cells at 1000 nM incubated for 72 hrs by CCK8 assay relative to control. The format is functional.
Data set [16] relates to MOLM-13. Nature of the data set: Antiproliferative activity against human sunitinib-resistant MOLM-13 cells at 333 nM incubated for 72 hrs by CCK8 assay relative to control. It is filed as functional.
Data set [17] concerns MOLM-13. Briefly: Antiproliferative activity against human quizartinib-resistant MOLM-13 cells at 4 nM incubated for 72 hrs by CCK8 assay relative to control. It is filed as functional.

In the data set with MV4-11, `Cc1c(/C=C2\C(=O)Nc3ccc(F)cc32)[nH]c(Br)c1NC(=O)[C@@H]1CCCN1` came in with a half-inhibitory concentration (IC50) of 61.5 nM. Further, the remaining at 2160 h in data set [1] amounted to 96.6%.

For the compound `CCNCCC(=O)Nc1c[nH]c(/C=C2\C(=O)Nc3ccc(F)cc32)c1C`, the values for the IC50 (in the data set with MOLM-13 [2]; in data set [3]; in the data set on MV4-11) were 51.2 nM, 2.5 nM and 34.5 nM, respectively.

Take `CCN(CC)CCC(=O)Nc1c[nH]c(/C=C2\C(=O)Nc3ccc(F)cc32)c1C`: the figures for the 50% inhibitory concentration (IC50) (with MOLM-13 [2]; in data set [3]; in the data set on MV4-11) were 54.3 nM, 2 nM and 30.3 nM, respectively.

For the compound `CCN(CC)CC(=O)Nc1c[nH]c(/C=C2\C(=O)Nc3ccc(F)cc32)c1C`, the results for the IC50 with MOLM-13 [2] and in the data set on MV4-11 were 176 nM and 81.7 nM, respectively.

For `Cc1c(NC(=O)CCNC2CCCC2)c[nH]c1/C=C1\C(=O)Nc2ccc(F)cc21`, the IC50 in the data set with MOLM-13 [2] amounted to 44.3 nM; in data set [3], 0.6 nM; in the data set with MV4-11 it was 29.2 nM.

On to `Cc1c(NC(=O)CNC2CCCC2)c[nH]c1/C=C1\C(=O)Nc2ccc(F)cc21`, for which the IC50 with MOLM-13 [2] amounted to 158 nM; in the data set with MV4-11 it was 125 nM.

In the case of `Cc1c(NC(=O)CC2CCCN2)c[nH]c1/C=C1\C(=O)Nc2ccc(F)cc21` (stereo unspecified), the IC50 with MOLM-13 [2] turned out to be 35.9 nM; in data set [3], 2.7 nM; with MV4-11 it was 50 nM.

Consider `Cc1c(NC(=O)CN2CCCC2)c[nH]c1/C=C1\C(=O)Nc2ccc(F)cc21`, for which the half-maximal inhibitory concentration (IC50) in the data set with MOLM-13 [2] came out at 61.9 nM; in data set [3], 1.4 nM; in the data set with MV4-11 it was 77 nM.

Consider `Cc1c(NC(=O)C2CCCCN2)c[nH]c1/C=C1\C(=O)Nc2ccc(F)cc21` (stereo unspecified), for which the IC50 with MOLM-13 [2] came to 59.2 nM; in data set [3] it was 2.4 nM; in the data set with MV4-11, 54.4 nM.

In the case of `Cc1c(NC(=O)[C@@H]2CCCN2)c[nH]c1/C=C1\C(=O)Nc2ccc(F)cc21`, the concentration for half-maximal inhibition (IC50) amounted to 35.9 nM in the data set with MOLM-13 [2], 2.5 nM in [3] and 37.2 nM in the data set on MV4-11. Also, the remaining at 2160 h in [1] was 99.1%.

For `Cc1c(NC(=O)CCNC(C)(C)C)c[nH]c1/C=C1\C(=O)Nc2ccc(F)cc21`, the IC50 with MOLM-13 [2] was 58.2 nM; in data set [3], 1.8 nM; with MV4-11, 44.8 nM.

As to `Cc1c(NC(=O)CCN2CCCCC2)c[nH]c1/C=C1\C(=O)Nc2ccc(F)cc21`, the 50% inhibitory concentration (IC50) in the data set on MOLM-13 [2] worked out at 64.2 nM; in data set [3], 1.3 nM; in the data set with MV4-11 it was 44.2 nM.

In the case of `Cc1c(NC(=O)CCN(C)C)c[nH]c1/C=C1\C(=O)Nc2ccc(F)cc21`, the IC50 in the data set with MOLM-13 [2] stood at 57 nM; in [3], 1.7 nM; in the data set on MV4-11 it was 32.4 nM.

As to `Cc1[nH]c(/C=C2\C(=O)Nc3ccc(F)cc32)c(C)c1NC(=O)[C@@H]1CCCN1`, the IC50 in the data set on MV4-11 stood at 40.9 nM. Also, in data set [1], the remaining at 2160 h is 80.8%.

On to `Cc1c(NC(=O)CCN2CCN(C)CC2)c[nH]c1/C=C1\C(=O)Nc2ccc(F)cc21`, for which the half-maximal inhibitory concentration (IC50) amounted to 47.5 nM with MOLM-13 [2], 3 nM in data set [3] and 41.3 nM in the data set on MV4-11.

As for `Cc1c(NC(=O)[C@H]2CCCN2)c[nH]c1/C=C1\C(=O)Nc2ccc(F)cc21`, the half-inhibitory concentration (IC50) in the data set with MOLM-13 [2] amounted to 70.8 nM; in the data set with MV4-11, 69.9 nM.

Regarding `Cc1c(NC(=O)CN(C)C)c[nH]c1/C=C1\C(=O)Nc2ccc(F)cc21`, the IC50 in the data set on MOLM-13 [2] came out at 36 nM; in data set [3], 2 nM; with MV4-11, 78.6 nM.

Regarding `CCCNCCC(=O)Nc1c[nH]c(/C=C2\C(=O)Nc3ccc(F)cc32)c1C`, the half-maximal inhibitory concentration (IC50) in the data set with MOLM-13 [2] worked out at 57.4 nM; in data set [3] it was 1.7 nM; in the data set on MV4-11, 34.7 nM.

As to `Cc1c(NC(=O)CN2CCN(C)CC2)c[nH]c1/C=C1\C(=O)Nc2ccc(F)cc21`, the concentration for half-maximal inhibition (IC50) turned out to be 48.4 nM in the data set on MOLM-13 [2], 2.7 nM in [3] and 51.8 nM with MV4-11.

As for `Cc1c(NC(=O)CCN2CCCC2)c[nH]c1/C=C1\C(=O)Nc2ccc(Br)cc21`, the IC50 stood at 71.5 nM with MOLM-13 [2] and 58.6 nM with MV4-11.

`COc1ccc2c(c1)/C(=C/c1[nH]cc(NC(=O)CCN3CCCC3)c1C)C(=O)N2`: the half-inhibitory concentration (IC50) with MOLM-13 [2] was found to be 55.7 nM; in the data set with MV4-11 it was 28.9 nM.

As to `Cc1c(NC(=O)CCN2CCOCC2)c[nH]c1/C=C1\C(=O)Nc2ccc(F)cc21`, the IC50 came out at 173 nM in the data set with MOLM-13 [2] and 133 nM in the data set with MV4-11.

With `Cc1c(/C=C2\C(=O)Nc3ccc(F)cc32)[nH]c(Cl)c1NC(=O)[C@@H]1CCCN1`, the IC50 in the data set with MV4-11 came out at 50.7 nM. Moreover, in [1], the remaining at 2160 h turned out to be 95.4%.

Regarding `Cc1c(NC(=O)C2CCNCC2)c[nH]c1/C=C1\C(=O)Nc2ccc(F)cc21`, the results for the IC50 in the data set with MOLM-13 [2] and in the data set on MV4-11 were 143 nM and 177 nM, respectively.

As for `Cc1c(NC(=O)CN2CCCCC2)c[nH]c1/C=C1\C(=O)Nc2ccc(F)cc21`, the values for the half-inhibitory concentration (IC50) in the data set on MOLM-13 [2] and in the data set with MV4-11 were over 1000 nM and 252 nM, respectively.

As to `Cc1c(NC(=O)CCN2CCCC2)c[nH]c1/C=C1\C(=O)Nc2ccc(Cl)cc21`, the IC50 is 64.5 nM in the data set with MOLM-13 [2] and 20.9 nM in the data set on MV4-11.

`CC(C)(C)c1cc(NC(=O)Nc2ccc(-c3cn4c(n3)sc3cc(OCCN5CCOCC5)ccc34)cc2)no1` [QUIZARTINIB]: the Activity in the data set on MOLM-13 [4] is 5.2%; with MOLM-13 [5], 1.4%; with MOLM-13 [6], 2.8%; in the data set with MOLM-13 [7], -5.8%; in the data set with MOLM-13 [8], 10.9%; in the data set with MOLM-13 [9], -4.1%. The Activity in the data set with MOLM-13 [10] is reported as -0.8%; with MOLM-13 [11], -0.9%; in the data set on MOLM-13 [12], 2.9%; with MOLM-13 [13], -1.5%; in the data set on MOLM-13 [14], 0.2%; with MOLM-13 [15], 1.3%. Also, the Activity was 5.7% with MOLM-13 [16] and -0.4% in the data set on MOLM-13 [17].
